Reference: article PMC5522258 (Oncotarget, 2017)
Where “and” joins values, the source holds several entries; their conditions need not be identical. Equal values may be shown once. Read-outs that look alike come from different tables or passages of the source. Values belong to the compound of their own block, whether it stands above or below them.

Assays:
[1] = cited from earlier work
UGT1A6 = target: T1, UGT1A6 (Homo sapiens, UniProt P19224); assay: SN-38 glucuronidation by human recombinant UGT1A6, with and without panobinostat; format: in vitro ADME; conditions: UGT1A6, panobinostat 20 and 200 nmol/L; CLint increases insignificant (p > 0.05)
T1 construct: purchased BD Gentest
T1 sequence (P19224 27-532): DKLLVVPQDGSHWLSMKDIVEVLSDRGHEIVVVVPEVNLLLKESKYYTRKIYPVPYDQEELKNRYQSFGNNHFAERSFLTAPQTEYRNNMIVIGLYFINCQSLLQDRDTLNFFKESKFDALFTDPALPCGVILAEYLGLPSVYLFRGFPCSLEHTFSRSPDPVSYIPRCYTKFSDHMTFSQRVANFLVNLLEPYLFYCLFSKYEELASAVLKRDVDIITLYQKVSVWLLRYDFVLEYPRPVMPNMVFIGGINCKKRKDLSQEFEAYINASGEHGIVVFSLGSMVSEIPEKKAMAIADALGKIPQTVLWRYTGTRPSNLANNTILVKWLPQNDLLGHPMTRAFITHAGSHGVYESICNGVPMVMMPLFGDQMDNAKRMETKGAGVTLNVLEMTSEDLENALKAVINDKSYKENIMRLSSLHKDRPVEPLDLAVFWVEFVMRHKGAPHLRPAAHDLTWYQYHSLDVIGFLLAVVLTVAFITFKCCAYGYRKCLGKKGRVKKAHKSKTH
Method: (§1) UGT1A1, UGT1A6 and UGT1A7 were chosen since these UGTs could be responsible for glucuronidating panobinostat.
(§2) All experiments were carried out in triplicate. […] Data were considered statistically significant when p < 0.05.

UGT1A1 [2] = target: T2, UGT1A1 (Homo sapiens, UniProt P22309); assay: SN-38 glucuronidation (SN-38G formation) by human recombinant UGT1A1, with and without HDACi; format: in vitro ADME; conditions: for decrease of CLint: p < 0.05
T2 sequence (P22309 26-533): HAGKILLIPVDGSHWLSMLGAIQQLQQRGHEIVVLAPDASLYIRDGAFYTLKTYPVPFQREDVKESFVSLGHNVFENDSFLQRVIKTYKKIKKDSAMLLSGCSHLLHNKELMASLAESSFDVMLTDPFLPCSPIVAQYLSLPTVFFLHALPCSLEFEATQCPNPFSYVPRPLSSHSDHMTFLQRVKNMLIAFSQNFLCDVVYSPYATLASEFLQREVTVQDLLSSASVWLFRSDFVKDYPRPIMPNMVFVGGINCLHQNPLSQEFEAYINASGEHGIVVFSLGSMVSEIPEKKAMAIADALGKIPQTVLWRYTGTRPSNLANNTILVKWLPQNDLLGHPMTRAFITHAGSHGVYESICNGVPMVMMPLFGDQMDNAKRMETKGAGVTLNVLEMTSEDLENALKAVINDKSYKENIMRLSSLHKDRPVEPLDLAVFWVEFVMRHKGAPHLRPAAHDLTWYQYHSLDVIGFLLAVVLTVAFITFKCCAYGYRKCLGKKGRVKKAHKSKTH
Method: as §1, §2

UGT1A7 = target: T3, UGT1A7 (Homo sapiens, UniProt Q9HAW7); assay: SN-38 glucuronidation by human recombinant UGT1A7, with and without panobinostat; format: in vitro ADME; conditions: UGT1A7, panobinostat 20 and 200 nmol/L; CLint increases insignificant (p > 0.05)
T3 construct: purchased BD Gentest
T3 sequence (Q9HAW7 26-530): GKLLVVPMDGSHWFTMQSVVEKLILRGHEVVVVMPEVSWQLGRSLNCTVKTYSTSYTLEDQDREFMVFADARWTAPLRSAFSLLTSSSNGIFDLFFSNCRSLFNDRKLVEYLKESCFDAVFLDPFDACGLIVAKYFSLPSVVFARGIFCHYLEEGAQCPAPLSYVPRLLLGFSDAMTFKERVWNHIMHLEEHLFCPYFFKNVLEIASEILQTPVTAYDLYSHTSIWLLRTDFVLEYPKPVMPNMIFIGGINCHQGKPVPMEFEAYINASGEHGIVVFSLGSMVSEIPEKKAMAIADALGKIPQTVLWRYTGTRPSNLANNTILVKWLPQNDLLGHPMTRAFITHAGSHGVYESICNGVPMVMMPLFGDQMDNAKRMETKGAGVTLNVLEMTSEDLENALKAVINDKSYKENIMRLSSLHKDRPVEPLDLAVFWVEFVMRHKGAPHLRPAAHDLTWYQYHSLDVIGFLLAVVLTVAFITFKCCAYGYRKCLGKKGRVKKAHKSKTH
Method: as §1, §2

UGT1A9 = target: T4, UGT1A9 (Homo sapiens, UniProt O60656); assay: SN-38 glucuronidation by human recombinant UGT1A9, with and without vorinostat; format: in vitro ADME
T4 construct: purchased BD Gentest
T4 sequence (O60656 26-530): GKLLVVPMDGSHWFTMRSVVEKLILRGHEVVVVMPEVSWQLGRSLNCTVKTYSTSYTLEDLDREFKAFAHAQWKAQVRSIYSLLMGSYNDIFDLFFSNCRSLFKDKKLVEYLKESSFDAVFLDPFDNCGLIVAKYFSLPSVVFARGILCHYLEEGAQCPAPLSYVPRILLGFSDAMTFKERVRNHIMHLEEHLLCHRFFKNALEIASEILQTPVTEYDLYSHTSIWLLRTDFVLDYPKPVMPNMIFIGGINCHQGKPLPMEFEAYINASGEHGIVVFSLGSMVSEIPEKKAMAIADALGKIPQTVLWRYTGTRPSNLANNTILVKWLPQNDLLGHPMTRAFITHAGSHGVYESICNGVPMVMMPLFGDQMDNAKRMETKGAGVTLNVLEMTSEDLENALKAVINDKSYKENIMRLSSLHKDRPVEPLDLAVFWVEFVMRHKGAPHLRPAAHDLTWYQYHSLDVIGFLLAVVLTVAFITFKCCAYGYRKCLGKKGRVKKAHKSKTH
Method: as §2

UGT1A1 [3] = target: T2, UGT1A1; assay: in vitro; conditions: pooled liver microsomes, UGT1A1*28*28 (7/7) genotype, pH 7.4
Method: (§3) Ten microliter aliquots were injected into a high-performance liquid chromatograph assay system (Agilent 1100, Germany) with tandem mass spectrometric detection (API 4000 triple-quadrupole mass spectrometer; AB Sciex, Concord, Canada). Baseline separation of the analytes was achieved on the Alltima C18 (150 mm x 2.1 mm, 5 μm) column. The mobile phase A and B consisted of 100% acetonitrile and 0.1% formic acid, respectively.
(§4) After pre-incubation, the reaction was started with the addition of UGT1A1 or pooled HLMs (0.5 mg/mL). Reaction mixtures were incubated at 37°C for 30 minutes.
(§5) All experiments were carried out in triplicate. SN-38G formation velocity (ν) was calculated as Cm, 30 min/incubation time/microsomal protein concentration, where Cm, 30 min was the metabolite concentration after 30 min incubation. Plots of substrate concentration, S (X axis) versus ν (Y axis) were then constructed. Km and Vmax were calculated by the Michaelis-Menten Equation 1 below using GraphPad software v5.01 (GraphPad Software, Inc., San Diego, CA, USA). The kinetic parameter Vmax/Km, which is equivalent to intrinsic clearance (CLint) (Equation 2), was derived from the slope of the plot of the rate of product formation versus substrate concentration. Comparisons of CLint between two groups were performed by a paired t-test.

UGT1A1 [4] = target: T2, UGT1A1; assay: in vitro; conditions: pooled liver microsomes, UGT1A1*1*28 (6/7) genotype, pH 7.4
Method: as §3, §4, §5

[5] = more potent than irinotecan; cited from earlier work
UGT1A1 [6] = assay: SN-38 glucuronidation by pooled HLMs, 50 donor pool (wild type, 6/6), with and without belinostat; format: in vitro ADME, human; conditions: human, pH 7.4; 50 donor pool HLMs (6/6), without belinostat; read-out: intrinsic clearance (CLint) of SN-38G formation
Method: as §2

[7] = test system: pooled HLMs (50 donor pool, wild-type 6/6 genotype); assay: as above; format: in vitro ADME, human; conditions: for decrease of CLint: 50 donor pool HLMs (6/6), p < 0.05
Method: as §2

[8] = target: T5, pooled HLMs (UGT1A1*1*28 allelic variant, 6/7) (Homo sapiens, UniProt P22309)
T5 sequence (P22309 26-533): T2 sequence (P22309 26-533)
Method: as §3, §4, §5

[9] = target: T6, pooled HLMs (UGT1A1*28*28 allelic variant, 7/7) (Homo sapiens, UniProt P22309)
T6 sequence (P22309 26-533): T2 sequence (P22309 26-533)
Method: as §3, §4, §5

inhibitory effect on SN-38 glucuronidation (UGT1A6): not found to have any inhibitory effect | inhibitory effect on SN-38 glucuronidation (UGT1A1 [2]; UGT1A1, panobinostat 20 and 200 nmol/L, CLint increases insignificant (p > 0.05)): not found to have any inhibitory effect | inhibitory effect on SN-38 glucuronidation (UGT1A7): not found to have any inhibitory effect
Compound: Cc1[nH]c2ccccc2c1CCNCc1ccc(/C=C/C(=O)NO)cc1 [panobinostat]
Cmax ([1]; intravenous administration): 0.2 µM | Cmax ([1]; oral administration): 0.02 µM

inhibition of UGT1A9 (SN-38 glucuronidation) (UGT1A9; vorinostat 2 µmol/L (therapeutic concentration)): no significant inhibition
Compound: O=C(CCCCCCC(=O)Nc1ccccc1)NO [vorinostat]

microsomal CLint (UGT1A1 [3]): 5.4 µL/min/mg | microsomal CLint (UGT1A1 [4]): 29.2 µL/min/mg | microsomal CLint (UGT1A1 [2]; human, pH 7.4, recombinant UGT1A1, without belinostat, read-out: intrinsic clearance (CLint) of SN-38G formation): 21.6 µL/min/mg | microsomal CLint (UGT1A9; human, recombinant UGT1A9, read-out: CLint of SN-38G): 7.48 µL/min/mg | microsomal CLint (UGT1A1 [6]): 81.2 µL/min/mg
Compound: CCc1c2c(nc3ccc(O)cc13)-c1cc3c(c(=O)n1C2)COC(=O)[C@]3(O)CC [SN-38, 7-ethyl-10-hydroxycamptothecin]
potency relative to irinotecan [5]: 100-1000 times | SN-38 glucuronidation activity (Vmax) ([7]; HLMs wild type 6/6, without belinostat): 41.13 pmol/min/mg

inhibition type ([8]; SN-38 glucuronidation by HLMs (6/7)): non-competitive inhibition | decrease of SN-38G formation rate compared to wild type ([8]; UGT1A1*1*28 (6/7) HLMs vs wild type 6/6, both with belinostat 200 μmol/L): ~ 64% | decrease of CLint ([8]; UGT1A1*1*28 (6/7) HLMs, belinostat 200 μmol/L vs none, p < 0.05): 79% | rate of SN-38G formation (Vmax) ([8]; UGT1A1*1*28 (6/7) HLMs, with belinostat 200 μmol/L): 3.77 pmol/min/mg | inhibition type (UGT1A1 [2]; SN-38 glucuronidation by UGT1A1): non-competitive | interaction with irinotecan (SN-38 glucuronidation) (UGT1A1 [2]; belinostat 10 μmol/L, simulating oral dosing): would not have significant interactions | decrease of CLint (UGT1A1 [2]; recombinant UGT1A1, belinostat 100 μmol/L vs no belinostat): ~ 62% | decrease of CLint (UGT1A1 [2]; recombinant UGT1A1, belinostat 200 μmol/L vs no belinostat): 81% | Vmax of SN-38 glucuronidation (UGT1A1 [2]; recombinant UGT1A1, with belinostat (abstract: 100 and 200 µmol/L; lowest value, taken as 200 µmol/L)): 1.95 pmol/min/mg | decrease of CLint ([7]; belinostat 100 μmol/L vs none): 56% | decrease of CLint ([7]; belinostat 200 μmol/L vs none): 68% | inhibition type ([9]; SN-38 glucuronidation by HLMs (7/7)): non-competitive inhibition | decrease of SN-38G formation rate compared to wild type ([9]; UGT1A1*28*28 (7/7) HLMs vs wild type 6/6, both with belinostat 200 μmol/L): ~ 64% and ~ 68% | decrease of CLint ([9]; UGT1A1*28*28 (7/7) HLMs, belinostat 200 μmol/L vs none, p < 0.05): 75% | rate of SN-38G formation (Vmax) ([9]; UGT1A1*28*28 (7/7) HLMs, with belinostat 200 μmol/L): 3.30 pmol/min/mg
Compound: O=C(/C=C/c1cccc(S(=O)(=O)Nc2ccccc2)c1)NO [belinostat]
Cmax ([1]; high-dose intravenous administration): 200 µM | Cmax ([1]; oral administration): 10 µM | SN-38 glucuronidation activity (Vmax) ([7]; HLMs wild type 6/6, with belinostat 200 µmol/L): 10.54 pmol/min/mg | inhibition type ([7]; SN-38 glucuronidation by HLMs (6/6)): non-competitive inhibition
